SMILES | melting point
NS(=O)(=O)c1ccc(-c2noc(-c3cnn4c(C(F)F)cc(-c5ccc(C(F)(F)F)cc5)nc34)n2)cc1 [Example 4, 4-{5-[7-Difluoromethyl-5-(4-trifluoromethyl-phenyl)-pyrazolo[1,5-a]pyrimidin-3-yl]-[1,2,4]oxadiazol-3-yl}-benzenesulfonamide] | 283 °C
NS(=O)(=O)c1cccc(-c2noc(-c3cnn4c(C(F)F)cc(-c5ccc(C(F)(F)F)cc5)nc34)n2)c1 [Example 5, 3-{5-[7-Difluoromethyl-5-(4-trifluoromethyl-phenyl)-pyrazolo[1,5-a]pyrimidin-3-yl]-[1,2,4]oxadiazol-3-yl}-benzenesulfonamide] | 267 °C
NS(=O)(=O)c1ccc(-c2noc(-c3cnn4c(C(F)(F)F)cc(-c5ccc(Cl)cc5)nc34)n2)cc1 [Example 12, 4-{5-[5-(4-Chloro-phenyl)-7-trifluoromethyl-pyrazolo[1,5-a]pyrimidin-3-yl]-[1,2,4]oxadiazol-3-yl}-benzenesulfonamide] | 296 °C
NS(=O)(=O)c1cccc(-c2noc(-c3cnn4c(C(F)(F)F)cc(-c5ccc(C(F)(F)F)c(OCC(F)(F)F)c5)nc34)n2)c1 [Example 16, 3-(5-{5-[3-(2,2,2-Trifluoro-ethoxy)-4-trifluoromethyl-phenyl]-7-trifluoromethyl-pyrazolo[1,5-a]pyrimidin-3-yl}-[1,2,4]oxadiazol-3-yl)-benzenesulfonamide] | 250 °C
Cc1cc(-c2cc(C(F)(F)F)n3ncc(-c4nc(-c5cccc(S(N)(=O)=O)c5)no4)c3n2)ccc1C(F)(F)F [Example 17, 3-{5-[5-(3-Methyl-4-trifluoromethyl-phenyl)-7-trifluoromethyl-pyrazolo[1,5-a]pyrimidin-3-yl]-[1,2,4]oxadiazol-3-yl}-benzenesulfonamide] | 270 °C
Cc1cc(-c2cc(C(F)(F)F)n3ncc(-c4nc(-c5ccc(S(N)(=O)=O)cc5)no4)c3n2)ccc1C(F)(F)F [Example 18, 4-{5-[5-(3-Methyl-4-trifluoromethyl-phenyl)-7-trifluoromethyl-pyrazolo[1,5-a]pyrimidin-3-yl]-[1,2,4]oxadiazol-3-yl}-benzenesulfonamide] | 273 °C
Cc1cc(-c2cc(C(F)(F)F)n3ncc(-c4nc(-c5ccc(S(N)(=O)=O)s5)no4)c3n2)ccc1C(F)(F)F [Example 22, 5-{5-[5-(3-Methyl-4-trifluoromethyl-phenyl)-7-trifluoromethyl-pyrazolo[1,5-a]pyrimidin-3-yl]-[1,2,4]oxadiazol-3-yl}-thiophene-2-sulfonic acid amide] | 324 °C
NS(=O)(=O)c1cccc(-c2noc(-c3cnn4c(C(F)(F)F)cc(-c5cccc(C(F)(F)F)c5)nc34)n2)c1 [Example 26, 3-{5-[7-Trifluoromethyl-5-(3-trifluoromethyl-phenyl)-pyrazolo[1,5-a]pyrimidin-3-yl]-[1,2,4]oxadiazol-3-yl}-benzenesulfonamide] | 251 °C
NS(=O)(=O)c1ccc(-c2noc(-c3cnn4c(C(F)(F)F)cc(-c5ccc(Cl)cc5)nc34)n2)s1 [Example 28, 5-{5-[5-(4-Chloro-phenyl)-7-trifluoromethyl-pyrazolo[1,5-a]pyrimidin-3-yl]-[1,2,4]oxadiazol-3-yl}-thiophene-2-sulfonic acid amide] | 294 °C
Nc1ccc(-c2noc(-c3cnn4c(C(F)(F)F)cc(-c5ccc(C(F)(F)F)cc5)nc34)n2)cn1 [Example 35, 5-{5-[7-Trifluoromethyl-5-(4-trifluoromethyl-phenyl)-pyrazolo[1,5-a]pyrimidin-3-yl]-[1,2,4]oxadiazol-3-yl}-pyridin-2-ylamine] | 257 °C
Nc1ccc(-c2noc(-c3cnn4c(C(F)F)cc(-c5ccc(C(F)(F)F)cc5)nc34)n2)cn1 [Example 36, 5-{5-[7-Difluoromethyl-5-(4-trifluoromethyl-phenyl)-pyrazolo[1,5-a]pyrimidin-3-yl]-[1,2,4]oxadiazol-3-yl}-pyridin-2-ylamine] | 242 °C
Cc1cc(-c2ccc(Cl)cc2)cn2c(-c3nc(-c4cccc(S(N)(=O)=O)c4)no3)cnc12 [Example 40, 3-{5-[6-(4-Chloro-phenyl)-8-methyl-imidazo[1,2-a]pyridin-3-yl]-[1,2,4]oxadiazol-3-yl}-benzenesulfonamide] | 301 °C

The remaining lines, values ahead:

melting point | SMILES
262 °C | NS(=O)(=O)c1cccc(-c2noc(-c3cnn4c(C(F)(F)F)cc(-c5ccc(C(F)(F)F)cc5)nc34)n2)c1 [Example 2, 3-{5-[7-Trifluoromethyl-5-(4-trifluoromethyl-phenyl)-pyrazolo[1,5-a]pyrimidin-3-yl]-[1,2,4]oxadiazol-3-yl}-benzenesulfonamide]
247 °C | NS(=O)(=O)c1cccc(-c2noc(-c3cnn4c(C(F)(F)F)cc(-c5ccc(Cl)cc5)nc34)n2)c1 [Example 10, 3-{5-[5-(4-Chloro-phenyl)-7-trifluoromethyl-pyrazolo[1,5-a]pyrimidin-3-yl]-[1,2,4]oxadiazol-3-yl}-benzenesulfonamide]
292 °C | NS(=O)(=O)c1ccc(-c2noc(-c3cnc4c(C(F)(F)F)cc(-c5ccc(C(F)(F)F)cc5)cn34)n2)cc1 [Example 13, 4-{5-[8-Trifluoromethyl-6-(4-trifluoromethyl-phenyl)-imidazo[1,2-a]pyridin-3-yl]-[1,2,4]oxadiazol-3-yl}-benzenesulfonamide]
292 °C | NS(=O)(=O)c1ccc(-c2nc(-c3cnn4c(C(F)(F)F)cc(-c5ccc(C(F)(F)F)cc5)nc34)no2)cc1 [Example 14, 4-{3-[7-Trifluoromethyl-5-(4-trifluoromethyl-phenyl)-pyrazolo[1,5-a]pyrimidin-3-yl]-[1,2,4]oxadiazol-5-yl}-benzenesulfonamide]
285 °C | NS(=O)(=O)c1cccc(-c2nc(-c3cnn4c(C(F)(F)F)cc(-c5ccc(C(F)(F)F)cc5)nc34)no2)c1 [Example 15, 3-{3-[7-Trifluoromethyl-5-(4-trifluoromethyl-phenyl)-pyrazolo[1,5-a]pyrimidin-3-yl]-[1,2,4]oxadiazol-5-yl}-benzenesulfonamide]
231 °C | NS(=O)(=O)c1cccc(-c2noc(-c3cnn4c(C(F)F)cc(-c5ccc(Cl)cc5)nc34)n2)c1 [Example 19, 3-{5-[5-(4-Chloro-phenyl)-7-difluoromethyl-pyrazolo[1,5-a]pyrimidin-3-yl]-[1,2,4]oxadiazol-3-yl}-benzenesulfonamide]
255 °C | NS(=O)(=O)c1ccc(-c2noc(-c3cnn4c(C(F)(F)F)cc(-c5ccc(C(F)(F)F)c(OCC(F)(F)F)c5)nc34)n2)s1 [Example 23, 5-(5-{5-[3-(2,2,2-Trifluoro-ethoxy)-4-trifluoromethyl-phenyl]-7-trifluoromethyl-pyrazolo[1,5-a]pyrimidin-3-yl}-[1,2,4]oxadiazol-3-yl)-thiophene-2-sulfonic acid amide]
300 °C | NS(=O)(=O)c1ccc(-c2noc(-c3cnn4c(C(F)(F)F)cc(-c5cccc(C(F)(F)F)c5)nc34)n2)cc1 [Example 25, 4-{5-[7-Trifluoromethyl-5-(3-trifluoromethyl-phenyl)-pyrazolo[1,5-a]pyrimidin-3-yl]-[1,2,4]oxadiazol-3-yl}-benzenesulfonamide]
259 °C | NS(=O)(=O)c1ccc(-c2noc(-c3cnn4c(C(F)F)cc(-c5ccc(Cl)cc5)nc34)n2)s1 [Example 29, 5-{5-[5-(4-Chloro-phenyl)-7-difluoromethyl-pyrazolo[1,5-a]pyrimidin-3-yl]-[1,2,4]oxadiazol-3-yl}-thiophene-2-sulfonic acid amide]
253 °C | Cc1cc(-c2ccc(Cl)cc2)nc2c(-c3nc(-c4ccc(S(N)(=O)=O)s4)no3)cnn12 [Example 32, 5-{5-[5-(4-Chloro-phenyl)-7-methyl-pyrazolo[1,5-a]pyrimidin-3-yl]-[1,2,4]oxadiazol-3-yl}-thiophene-2-sulfonic acid amide]
272 °C | NS(=O)(=O)c1ccc(-c2nc(-c3cnn4c(C(F)(F)F)cc(-c5ccc(C(F)(F)F)cc5)nc34)no2)s1 [Example 33, 5-{3-[7-Trifluoromethyl-5-(4-trifluoromethyl-phenyl)-pyrazolo[1,5-a]pyrimidin-3-yl]-[1,2,4]oxadiazol-5-yl}-thiophene-2-sulfonic acid amide]
220 °C | Cc1cc(-c2cc(C(F)(F)F)n3ncc(-c4nc(-c5ccc(N)nc5)no4)c3n2)ccc1C(F)(F)F [Example 37, 5-{5-[5-(3-Methyl-4-trifluoromethyl-phenyl)-7-trifluoromethyl-pyrazolo[1,5-a]pyrimidin-3-yl]-[1,2,4]oxadiazol-3-yl}-pyridin-2-ylamine]
275 °C | Cc1cc(-c2ccc(Cl)cc2)nc2c(-c3nc(-c4cccc(S(N)(=O)=O)c4)no3)cnn12 [Example 38, 3-{5-[5-(4-Chloro-phenyl)-7-methyl-pyrazolo[1,5-a]pyrimidin-3-yl]-[1,2,4]oxadiazol-3-yl}-benzenesulfonamide]
311 °C | Cc1cc(-c2ccc(Cl)cc2)cn2c(-c3nc(-c4ccc(S(N)(=O)=O)cc4)no3)cnc12 [Example 39, 4-{5-[6-(4-Chloro-phenyl)-8-methyl-imidazo[1,2-a]pyridin-3-yl]-[1,2,4]oxadiazol-3-yl}-benzenesulfonamide]
290 °C | Cc1cc(-c2ccc(C(F)(F)F)cc2)cn2c(-c3nc(-c4ccc(S(N)(=O)=O)cc4)no3)cnc12 [Example 43, 4-{5-[8-Methyl-6-(4-trifluoromethyl-phenyl)-imidazo[1,2-a]pyridin-3-yl]-[1,2,4]oxadiazol-3-yl}-benzenesulfonamide]
326 °C | Cc1cc(-c2ccc(C(F)(F)F)cc2)cn2c(-c3nc(-c4cccc(S(N)(=O)=O)c4)no3)cnc12 [Example 44, 3-{5-[8-Methyl-6-(4-trifluoromethyl-phenyl)-imidazo[1,2-a]pyridin-3-yl]-[1,2,4]oxadiazol-3-yl}-benzenesulfonamide]
285 °C | Cc1cc(-c2ccc(C(F)(F)F)cc2)cn2c(-c3nc(-c4ccc(S(N)(=O)=O)s4)no3)cnc12 [Example 45, 5-{5-[8-Methyl-6-(4-trifluoromethyl-phenyl)-imidazo[1,2-a]pyridin-3-yl]-[1,2,4]oxadiazol-3-yl}-thiophene-2-sulfonic acid amide]

From US8349844B2, “Substituted pyrazolo [1,5-A] pyrimidines as metabotropic glutamate antagonists” (Hoffmann-La Roche Inc., priority 2005, dated 2013)
